In patent US20250333394A1, “Tiparp Inhibitor Compounds” (AbbVie Inc., priority 2024, published 2025):
Where two headings read alike, the source gives them in different places.

How the values were obtained:
[1] = biological target: TIPARP GST-(TEV) (Homo sapiens (Human), UniProt Q7Z3E1); experiment: TR-FRET binding assay, TIPARP; conditions: for IC50: TR-FRET, Probe 1, 2 hours incubation; for PARP1/TIPARP IC50 Ratio: ratio of PARP1 GST IC50 to TIPARP GST-(TEV) IC50
Excerpt: The full-length cDNA encoding the human TIPARP (NP_001171647.1, UniProtKB-Q7Z3E1) of 657 amino acids was the template to generate the expression construct. […] The TIPARP fusion protein includes GST, glutathione S-transferase, a 26 kDa protein whose DNA sequence is frequently integrated into expression vectors for production of recombinant proteins. A […], was cloned into vector pFastBacTM 1 (Thermo Fisher Scientific) with an N-terminal GST tag followed by a TEV protease site to produce the TIPARP fusion protein, TIPARP GST-(TEV). TR-FRET assays were used to measure the binding of compounds to TIPARP and PARP1, and to characterize biochemical selectivity. Compound stock solutions (10 mM) were serially diluted in 3-fold increments in dimethyl sulfoxide (DMSO). Diluted compounds were dispensed (30 nL) into white ProxiPlate-384-well plates (PerkinElmer, Waltham, MA, USA) using an ECHO® 550 acoustic Labcyte dispenser (Beckman-Coulter Life Sciences, Indianapolis, IN, USA) to achieve a final starting concentration of 30 μM to 0.5 nM in the assay. This was followed by addition of 5 μL of 2× protein/probe mix (Table 2) made in assay buffer (Tris-HCl 50 mM pH 8.0; 5 mM MgCl2; 5 μM ZnCl2; 1 mM DTT (dithiothreitol); 0.15% BSA (bovine serum albumin) (w/v); and 0.01% TritonX-100 (w/v)) at final concentrations listed in Table 2. Subsequently, 5 μL of 2× antibody (Tb-labeled anti-GST antibody, Thermo Fisher Scientific, Waltham, MA, USA) in HEPES buffered saline was added to each well at a final concentration of 1 nM. The samples were then incubated for 2 hours under ambient conditions. Fluorescence was measured and TR-FR ET ratios were determined on an EnVision multimode plate reader (PerkinElmer) using a 520 nanometer (nm) excitation wavelength and collecting fluorescence emission at 495 nm. […] [table]

[2] = biological target: PARP1 GST (Homo sapiens (Human), UniProt P09874); experiment: TR-FRET binding assay, PARP1; conditions: Probe 2, 2 hours incubation
PARP1 GST, sequence (P09874 whole entry): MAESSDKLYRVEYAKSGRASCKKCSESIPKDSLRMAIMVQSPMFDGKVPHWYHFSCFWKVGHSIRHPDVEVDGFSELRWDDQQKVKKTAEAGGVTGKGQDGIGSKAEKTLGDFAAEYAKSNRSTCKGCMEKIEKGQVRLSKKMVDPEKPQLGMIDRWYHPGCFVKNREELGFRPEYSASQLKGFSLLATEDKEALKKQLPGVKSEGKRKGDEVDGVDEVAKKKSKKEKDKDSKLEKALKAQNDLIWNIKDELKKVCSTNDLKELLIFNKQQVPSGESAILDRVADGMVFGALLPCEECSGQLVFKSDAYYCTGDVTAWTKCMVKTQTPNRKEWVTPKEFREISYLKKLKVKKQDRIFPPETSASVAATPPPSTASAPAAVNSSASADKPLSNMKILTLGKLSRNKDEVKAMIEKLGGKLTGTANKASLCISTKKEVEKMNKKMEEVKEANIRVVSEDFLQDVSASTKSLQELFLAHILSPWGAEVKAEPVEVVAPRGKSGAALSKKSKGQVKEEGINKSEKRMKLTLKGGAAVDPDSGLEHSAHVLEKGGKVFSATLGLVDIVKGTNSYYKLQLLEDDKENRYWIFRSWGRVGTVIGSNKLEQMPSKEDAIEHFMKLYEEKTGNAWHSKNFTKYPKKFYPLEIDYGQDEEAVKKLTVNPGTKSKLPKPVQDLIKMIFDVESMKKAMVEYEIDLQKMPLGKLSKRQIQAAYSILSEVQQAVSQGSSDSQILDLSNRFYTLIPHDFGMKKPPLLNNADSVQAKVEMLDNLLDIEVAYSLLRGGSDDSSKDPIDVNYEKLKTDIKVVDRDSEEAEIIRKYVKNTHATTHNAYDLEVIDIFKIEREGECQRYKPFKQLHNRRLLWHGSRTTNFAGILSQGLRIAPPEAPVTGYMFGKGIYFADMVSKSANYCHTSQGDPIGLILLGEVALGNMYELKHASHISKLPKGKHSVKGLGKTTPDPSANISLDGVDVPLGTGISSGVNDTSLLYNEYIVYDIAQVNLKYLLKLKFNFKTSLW
Description: TR-FRET assays were used to measure the binding of compounds to TIPARP and PARP1, and to characterize biochemical selectivity. Compound stock solutions (10 mM) were serially diluted in 3-fold increments in dimethyl sulfoxide (DMSO). Diluted compounds were dispensed (30 nL) into white ProxiPlate-384-well plates (PerkinElmer, Waltham, MA, USA) using an ECHO® 550 acoustic Labcyte dispenser (Beckman-Coulter Life Sciences, Indianapolis, IN, USA) to achieve a final starting concentration of 30 μM to 0.5 nM in the assay. This was followed by addition of 5 μL of 2× protein/probe mix (Table 2) made in assay buffer (Tris-HCl 50 mM pH 8.0; 5 mM MgCl2; 5 μM ZnCl2; 1 mM DTT (dithiothreitol); 0.15% BSA (bovine serum albumin) (w/v); and 0.01% TritonX-100 (w/v)) at final concentrations listed in Table 2. Subsequently, 5 μL of 2× antibody (Tb-labeled anti-GST antibody, Thermo Fisher Scientific, Waltham, MA, USA) in HEPES buffered saline was added to each well at a final concentration of 1 nM. The samples were then incubated for 2 hours under ambient conditions. Fluorescence was measured and TR-FR ET ratios were determined on an EnVision multimode plate reader (PerkinElmer) using a 520 nanometer (nm) excitation wavelength and collecting fluorescence emission at 495 nm.

[3] = system: NCI-H1373 cells; experiment: NCI-H1373 CellTiter-Glo cell assay for TIPARP inhibition; assay type: cell-based, human; conditions: 6 days, 100 nM 10-Cl-BBQ in medium, read-out: NCI-H1373 CTG EC50
Description: The NCI-H1373 CellTiter-Glo® assay was used to determine cell numbers after TIPARP inhibition-induced cell cycle arrest, and enabled screening of compounds for cellular TIPARP inhibition potency.
Compound stock solutions (10 mM) were serially diluted in 3-fold increments in dimethyl sulfoxide. Sample aliquots (120 nL) were dispensed into Corning® 384-well Flat Clear Bottom White Polystyrene TC-treated Microplates (Corning Life Sciences, Corning, NY, USA) using an ECHO® 550 acoustic Labcyte dispenser (Beckman-Coulter Life Sciences, Indianapolis, IN, USA) to achieve final concentrations between 30 μM and 0.5 nM in the assay. This was followed by the addition of 40 μL of 1000 NCI-H1373 cells (ATCC®, Manassas, VA, USA) in complete growth medium RPMI 1640 growth medium (Thermo Fisher Scientific, Waltham, MA, USA) supplemented with 20 mg/L L-glutamate, 25 mM HEPES (4-(2-hydroxyethyl)-1-piperazineethanesulfonic acid), 10% (v/v) heat inactivated FBS (fetal bovine serum), 1% (w/v) penicillin-streptomycin, and 100 nM 10-Cl-BBQ (10-chloro-7H-benzimidazo[2,1-a]benz[de]isoquinolin-7-one, (Tocris, Minneapolis, MN, USA). Duplicate cell plates with 40 μL cells/well along with various concentrations of compounds were kept in Nunc™ Square BioAssay Dishes (Thermo Fisher Scientific) at 98% relative humidity in a 5% C02 incubator at 37° C. for 6 days. On day 7, plates were moved to ambient lab conditions for 10 minutes until the temperature equilibrated. Following equilibration, CellTiter-Glo® Luminescent Cell Viability Assay reagent (Promega™, Madison, WI, USA) was added (15 μL) to each well of the plates. After a 20 minutes incubation, luminescence was detected using a ViewLux™ microplate imager (PerkinElmer, Waltham, MA, USA). Data analysis was performed using GraphPad Prism (Dotmatics, Boston, MA, USA).

[4] = system: DLD-1 parent cells; experiment: CellTiter-Glo DLD-1 parent cell assay; assay type: cell-based; conditions: 6 days, read-out: DLD-1 CTG EC50
Excerpt: (§1) The DLD-1 BRCA2 (−/−) CellTiter-Glo® assay measured the synthetic lethality of PARP1/2 inhibitors and was used as a surrogate to allow measurement of activity of both PARP1 and PARP2 in cells. If PARP1 and PARP2 are inhibited and are trapped onto chromatin during DNA replication, there is replication fork stalling and accumulation of double strand breaks. In BR CA wild-type cells, the resulting double strand DNA breaks are repaired via homologous recombination. In cells with mutation of BRCA1 or BRCA2, homologous recombination repair of DNA double strand breaks is defective, and cell death occurs after PARP1/2 inhibitor treatment (Lord C J, Ashworth A. PARP inhibitors: synthetic lethality in the clinic. Science. 2017 Mar. 17; 355(6330):1152-1158). Testing compounds in viability assays with the DLD-1-BR CA 2 (−/−) and DLD-1 parent cell enabled assessment on PARP1/2-dependent (cytotoxicity in the BRCA2 (−/−) cells only) vs. non-selective cytotoxicity in both cell lines.
(§2) Compound stock solutions (10 mM) were serially diluted in 3-fold increments in dimethyl sulfoxide (DMSO). Sample aliquots (120 nL) were dispensed into Corning® 384-well Flat Clear Bottom White Polystyrene TC-treated Microplates (Corning Life Sciences, Corning, NY, USA) using an ECHO® 550 acoustic Labcyte dispenser (Beckman-Coulter Life Sciences, Indianapolis, IN, USA) to achieve concentrations between 30 μM and 0.5 nM in the assay. In the assay, 40 μL of 500 DLD-1 parent cells (HORIZON® Therapeutics, Deerfield, IL, USA) or 40 μL of 1200 DLD-1-BRCA2 (−/−) cells (HORIZON Therapeutics) in complete growth medium containing RPMI 1640 growth medium (ThermoFisher Scientific, Waltham, MA, USA) supplemented with 20 mg/L L-glutamate, 25 mM HEPES (4-(2-hydroxyethyl)-1-piperazineethanesulfonic acid), 10% (v/v) heat inactivated FBS (fetal bovine serum), and 1% (w/v) Penicillin-Streptomycin were added.
(§3) Duplicate cell plates with 40 μL cells/well along with various concentrations of compounds were kept in Nunc™ Square BioAssay Dishes (Thermo Fisher Scientific) at 98% relative humidity in a 5% CO2 incubator at 37° C. for 6 days. On day 7, plates were moved to ambient lab conditions for 10 minutes until the temperature equilibrated. Following equilibration, CellTiter-Glo® Luminescent Cell Viability Assay reagent (Promega™, Madison, WI, USA) was added (15 μL) to each well of the plates. After a 20 minutes incubation, luminescence was detected using a ViewLux™ microplate imager (PerkinElmer, Waltham, MA, USA). Data analysis was performed using GraphPad Prism (Dotmatics, Boston, MA, USA).

[5] = system: DLD-1 BRCA2 (−/−) cells; experiment: CellTiter-Glo DLD-1 BRCA2 (−/−) cell assay for PARP1/2 inhibition; assay type: cell-based; conditions: 6 days, read-out: DLD-1 BRCA2 (−/−) CTG EC50
Excerpt: as §1, §2, §3

TIPARP GST-(TEV), sequence (Q7Z3E1 441-657): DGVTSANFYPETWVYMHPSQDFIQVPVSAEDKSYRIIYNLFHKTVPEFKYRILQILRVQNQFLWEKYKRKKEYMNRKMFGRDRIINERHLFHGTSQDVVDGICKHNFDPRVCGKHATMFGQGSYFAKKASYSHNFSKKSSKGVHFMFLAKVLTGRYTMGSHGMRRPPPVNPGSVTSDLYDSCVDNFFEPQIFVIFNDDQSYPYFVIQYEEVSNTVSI

Row | Structure (SMILES) | IC50 [1] [nM] | PARP1/TIPARP IC50 Ratio [1] | IC50 [2] [nM] | EC50 ([3]; Homo sapiens, NCI-H1373, 144 h) [nM] | EC50 ([4]; Homo sapiens, 144 h) [nM] | EC50 ([5]; Homo sapiens, 144 h) [nM] | EC50 [3] [nM] | EC50 [4] [nM] | EC50 [5] [nM]
1 | C[C@@H]1CN(C(=O)[C@H]2C[C@@H](c3c[nH]c(=O)c(C(F)(F)F)c3)C2)CCN1c1ncc(C(F)(F)F)cn1 [Example 3, 5-[(1S,3s)-3-{(3R)-3-methyl-4-[5-(trifluoromethyl)pyrimidin-2-yl]piperazine-1-carbonyl}cyclobutyl]-3-(trifluoromethyl)pyridin-2(1H)-one] | 4.74 | 106 | 504 | 9.65 | > 30000 | 5030 | – | – | –
2 | C[C@@H]1CN(C(=O)[C@H]2C[C@@H](c3c[nH]c(=O)c(C(F)(F)F)c3)C2)C[C@H](C)N1c1ncc(C(F)(F)F)cn1 [Example 4, 5-[(1s,3s)-3-{(3R,5S)-3,5-dimethyl-4-[5-(trifluoromethyl)pyrimidin-2-yl]piperazine-1-carbonyl}cyclobutyl]-3-(trifluoromethyl)pyridin-2(1H)-one] | 5.7 | 547 | 3120 | 11.1 | 23900 | 7170 | – | – | –
3 | CC(C)(O)c1cnc(N2CCN(C(=O)[C@H]3C[C@@H](c4c[nH]c(=O)c(C(F)(F)F)c4)C3)CC2)nc1 [Example 28, 5-[(1s,3s)-3-{4-[5-(2-hydroxypropan-2-yl)pyrimidin-2-yl]piperazine-1-carbonyl}cyclobutyl]-3-(trifluoromethyl)pyridin-2(1H)-one] | 5.69 | 89.1 | 507 | – | – | – | 174 | > 30000 | 5450
4 | C[C@H]1CN(c2ncc(C(F)(F)F)cn2)CCN1C(=O)[C@H]1C[C@@H](Cc2c[nH]c(=O)c(C(F)(F)F)c2)C1 [Example 17, 5-{[(1R,3s)-3-{(2S)-2-methyl-4-[5-(trifluoromethyl)pyrimidin-2-yl]piperazine-1-carbonyl}cyclobutyl]methyl}-3-(trifluoromethyl)pyridin-2(1H)-one] | 5 | 41.2 | 206 | 34.1 | 9750 | 217 | – | – | –
5 | C[C@@H]1CN(c2ncc(C(F)(F)F)cn2)CCN1C(=O)[C@H]1C[C@H](c2c[nH]c(=O)c(C(F)(F)F)c2)C1 [Example 25, 5-[(1R,3r)-3-{(2R)-2-methyl-4-[5-(trifluoromethyl)pyrimidin-2-yl]piperazine-1-carbonyl}cyclobutyl]-3-(trifluoromethyl)pyridin-2(1H)-one] | 2000 | 1.02 | 2030 | – | – | – | 10200 | > 30000 | > 30000
6 | C[C@@H]1CN(c2ncc(C(F)(F)F)cn2)C[C@H](C)N1C(=O)[C@H]1C[C@@H](Cc2c[nH]c(=O)c(C(F)(F)F)c2)C1 [Example 13, 5-{[(1s,3s)-3-{(2R,6S)-2,6-dimethyl-4-[5-(trifluoromethyl)pyrimidin-2-yl]piperazine-1-carbonyl}cyclobutyl]methyl}-3-(trifluoromethyl)pyridin-2(1H)-one] | 3.79 | 1950 | 7380 | 33.3 | 11100 | 6960 | – | – | –
7 | O=c1[nH]cc([C@H]2C[C@H](C(=O)N3CCN(c4ncc(C(F)(F)F)cn4)CC3)C2)cc1C(F)(F)F [Example 26, 3-(trifluoromethyl)-5-[(1r,3r)-3-{4-[5-(trifluoromethyl)pyrimidin-2-yl]piperazine-1-carbonyl}cyclobutyl]pyridin-2(1H)-one] | 1620 | 0.790 | 1280 | – | – | – | 9100 | > 30000 | > 30000
8 | C[C@H]1CN(c2ncc(C(F)(F)F)cn2)CCN1C(=O)[C@H]1C[C@@H](c2c[nH]c(=O)c(C(F)(F)F)c2)C1 [Example 6, 5-[(1R,3s)-3-{(2S)-2-methyl-4-[5-(trifluoromethyl)pyrimidin-2-yl]piperazine-1-carbonyl}cyclobutyl]-3-(trifluoromethyl)pyridin-2(1H)-one] | 3.43 | 82.5 | 283 | 45.4 | 14400 | 1130 | – | – | –
